# Laboratory results: patent publication US12370143B2, “Compound or salt thereof and lipid particles” (FUJIFILM Corporation, priority 2018, dated 2025)
# Where two headings read alike, the source gives them in different places.
# Assays:
# [1] = system: DMS273 cells constantly expressing Luc; assay: Target reporter protein (Luc) knockdown in cell, reporter protein assay; assay type: cell-based; conditions: Homo sapiens, DMS-273
# Protocol: The nucleic acid lipid particles prepared by the same method as that in <Preparation of nucleic acid lipid particles> by using the compounds described in Table 3 were evaluated by reporter assay by the following method.
# By using pGL4.50 Luc2 (E1310 Promega), DMS273 cells (human small cell lung cancer) (European Collection of Authenticated Cell Cultures) constantly expressing Luc were prepared. RPMI (Gibco) (10% FBS (Gibco), 1% Penicillin-Streptomycin (Gibco), and 200 μg/mL Hygromycin (Wako)) was used as a culture medium. DMS273 cells (2.0×10^3) constantly expressing luciferase (Luc) were seeded in a 96-well plate and cultured in a 5% CO2 incubator for 24 hours, and then the medium was replaced. Then, 10 μL of each of the dispersion liquids of lipid particles diluted with PBS (Gibco) to yield a concentration of 1 to 1,000 nmol/L was added to the 96-well plate, and the final concentration was adjusted to 0.1 to 100 nmol/L (total amount of liquid: 110 μl). Thereafter, the cells were cultured in a 5% CO2 incubator for 24 hours, the medium was then replaced, and the cells were further cultured for 24 hours.
# After the viable cell count was determined, the expression amount of Luc was quantified using a Steady Glo assay kit (Promega), and the knockdown efficiency was calculated according to the following equation. Then, the IC50 concentration at which the expression amount of Luc was knocked down to 50% was calculated.
# [2] = Particle size of nucleic acid lipid particles (Luc2-siRNA); assay type: physicochemical; conditions: compound/DSPC/cholesterol/DMG-PEG2000 50/10/38.5/1.5
# Protocol: By using the dispersion liquid of lipid particles as it was, the particle size of the lipid particles was measured using a zeta potential/particle size measurement system ELS-Z2 (Otsuka Electronics Co., Ltd.).
# (§1) The compounds described in Table 2, L-α-distearoylphosphatidylcholine (trade name: COATSOME® MC-8080; NOF corporation), cholesterol (trade name: Choesterol HP; NIPPON FINE CHEMICAL CO., LTD.), and 1,2-dimyristoyl-rac-glycero-3-(methylpolyoxyethylene 2000) (hereinafter, called DMG-PEG2000) (trade name: SUNBRIGHT® GM-020; NOF corporation) were dissolved in ethanol at a molar ratio of 50/10/38.5/1.5 such that the total lipid concentration became 20 mmol/L, thereby obtaining an oil phase.
# (§2) An aqueous nucleic acid solution obtained by dissolving 5 mg of Luc2-siRNA having the sequence described in Biomacromolecules (2013) 14, p. 3905 in 1 mL of sterile water was diluted with 10 mmol/L acetate buffer having a pH 4 such that the nucleic acid concentration became 19.7 μmol/L, thereby obtaining a water phase. Then, the water phase and the oil phase were mixed together by a micromixer (see JP5288254B) using a syringe pump such that the volume ratio of water phase:oil phase became 3:1 (final ratio of siRNA/lipid=339 (mol/mol)), and the mixed solution was diluted 2× with PBS, thereby obtaining a dispersion liquid of nucleic acid lipid particles. The dispersion liquid was dialyzed (Slide-A-Lyzer G2, MWCO: 10 kD, Thermo Fisher Scientific) using a phosphate buffered saline such that ethanol was removed, thereby obtaining nucleic acid lipid particles.
# The particle size of the nucleic acid lipid particles was measured by the same method as that in <Preparation of lipid particles>.
# [3] = Encapsulation rate of siRNA in nucleic acid lipid particles (Luc2-siRNA); assay type: physicochemical; conditions: compound/DSPC/cholesterol/DMG-PEG2000 50/10/38.5/1.5
# Protocol: as §1, §2
# A 3 mol/L aqueous sodium acetate solution (30 μL) and 9 μL of glycogen were added to 60 μL of the lipid particles retaining nucleic acids, and then 1.5 mL of ethanol was added thereto such that only the nucleic acids were precipitated while the lipid was dissolved. Then, the supernatant was removed by centrifugation. After the precipitates were air-dried for 15 minutes or longer, water was added thereto such that the precipitates were redissolved, and the concentration thereof was measured using Nanodrop NF1000 (Thermo Fisher Scientific), thereby quantifying the total nucleic acid concentration.
# The nucleic acid concentration was quantified using a Quant-iT RiboGreen RNA Assay Kit (Thermo Fisher Scientific) according to the protocol. First, a 20×TE buffer included in the above kit was diluted with water, thereby obtaining a 1×TE buffer. TE represents Tris/EDTA (ethylenediaminetetraacetic acid). In order to quantify only the nucleic acid in the outer water phase, the dispersion liquid of lipid particles retaining nucleic acids was diluted 10,000× with the 1×TE buffer.
# The 10,000× diluted dispersion liquid of lipid particles (100 μL) was put in a 96-well plate, then 100 μL of a RiboGreen reagent (reagent included in the Quanti-iT Ribogreen RNA Assay Kit described above) diluted 2000× with the 1×TE buffer was added to a sample, and fluorescence (excitation wavelength: 485 nm, fluorescence wavelength: 535 nm) was measured using a plate reader Infinit EF200 (TECAN), thereby quantifying the nucleic acid concentration in the outer water phase.
# By using the total nucleic acid concentration obtained through the above steps and the quantified nucleic acid concentration in the outer water phase, the nucleic acid encapsulation rate of the nucleic acid lipid particles was calculated according to the following Equation. Nucleic acid encapsulation rate (%)=(total nucleic acid concentration−nucleic acid concentration in outer water phase)/total nucleic acid concentration×100 The results are shown in Table 2.
# [4] = Luc2-siRNA lipid particles using the compound, siRNA 0.1 to 100 nmol/L, concentration at which Luc expression is knocked down to 50%, read-out: IC50
Particle size (nm) [2] [nm],Nucleic acid encapsulation rate [3] [%],"IC50 [1, 4] [nM]",Compound,IC50 [1] [nM]
142,82,,"CCCCCCCCC(CCCCCC)COC(=O)CCCCCCCCC(CCCCCC)OC(=O)OCCN(CCO)CCN(CC)CC (stereo not drawn) [Example 97, 2-Hexyldecyl 3-ethyl-12-hexyl-6-(2-hydroxyethyl)-10-oxo-9,11-dioxa-3,6-diazahenicosan-21-oate]",
80.1,69,,"CCCCCCCCC(CCCCCC)COC(=O)CCC(CCCCCC)OC(=O)OCCN(CCN(CC)CC)C(C)C (stereo not drawn) [Example 114, 2-Hexyldecyl 3-ethyl-12-hexyl-6-isopropyl-10-oxo-9,11-dioxa-3,6-diazapentadecan-15-oate]",
88.6,69,,"CCCCCCCC/C=C\CCCCCCCCOC(=O)CCCC(CCCCCC)OC(=O)OCCN(CCN(CC)CC)C(C)C (stereo not drawn) [Example 115, (Z)-octadec-9-en-1-yl 3-ethyl-12-hexyl-6-isopropyl-10-oxo-9,11-dioxa-3,6-diazahexadecan-16-oate]",
257,66,,"CCCCCCC(CCCCCCCCC(=O)OCCC(CCCCC)CCCCC)OC(=O)OCCN(CCO)CCN(CC)CC (stereo not drawn) [Example 123, 3-Pentyloctyl 3-ethyl-12-hexyl-6-(2-hydroxyethyl)-10-oxo-9,11-dioxa-3,6-diazahenicosan-21-oate]",
80.7,71,,"CCCCCCCCC(CCCCCC)COC(=O)CCCCCCCCC(CCCCC)OC(=O)OCCN(CCN(CC)CC)C(C)C (stereo not drawn) [Example 127, 2-Hexyldecyl 3-ethyl-6-isopropyl-10-oxo-12-pentyl-9,11-dioxa-3,6-diazahenicosan-21-oate]",
255,62,,"CCCCCCC(CCCCCCCCC(=O)OCC(CCCCC)CCCCC)OC(=O)OCCN(CCO)CCN(CC)CC (stereo not drawn) [Example 128, 2-Pentylheptyl 3-ethyl-12-hexyl-6-(2-hydroxyethyl)-10-oxo-9,11-dioxa-3,6-diazahenicosan-21-oate]",
291,41,,"CCCCCCCCC(CCCCCC)COC(=O)CCCCCCCCC(CCCCC)OC(=O)OCCN(CCO)CCN(CC)CC (stereo not drawn) [Example 131, 2-Hexyldecyl 3-ethyl-6-(2-hydroxyethyl)-10-oxo-12-pentyl-9,11-dioxa-3,6-diazahenicosan-21-oate]",
98.4,76,,"CCCCCCCCC(CCCCCC)COC(=O)CCCCCCCCC(CCCCC)OC(=O)OCCN(CCOC(=O)CCCCCCC)CCN(CC)CC (stereo not drawn) [Example 132, 2-Hexyldecyl 3-ethyl-6-(2-(octanoyloxy)ethyl)-10-oxo-12-pentyl-9,11-dioxa-3,6-diazahenicosan-21-oate]",

# Further lines, the compound ahead of its results:
Compound,Particle size (nm) [2] [nm],Nucleic acid encapsulation rate [3] [%],"IC50 [1, 4] [nM]",IC50 [1] [nM]
"CCCCC/C=C\C/C=C\CCCCCCCCN(CCCCCCCC/C=C\C/C=C\CCCCC)C(=O)OCCN(C)C [Comparative Example 3, reference compound]",72.4,80,,> 100
"CCCCC/C=C\C/C=C\CCCCCCCCC(CCCCCCCC/C=C\C/C=C\CCCCC)OC(=O)OCCN(C)C [Comparative Example 4, 2-(Dimethylamino)ethyl((6Z,9Z,28Z,31Z)-heptatriaconta-6,9,28,31-tetraen-19-yl)carbonate, reference compound]",62.8,77,,> 100
"CCCCC/C=C\C/C=C\CCCCCCCCN(CCCCCCCC/C=C\C/C=C\CCCCC)C(=O)OCCN1CCN(C)CC1 [Comparative Example 5, 2-(4-Methylpiperazin-1-yl)ethyl di((9Z,12Z)-octadeca-9,12-dien-1-yl)carbamate, reference compound]",75.1,87,> 100,
"CCCCC/C=C\C/C=C\CCCCCCCCN(CCCCCCCC/C=C\C/C=C\CCCCC)C(=O)CN(C)CCN(C)C [Comparative Example 6, 2-((2-(dimethylamino)ethyl)(methyl)amino)-N,N-di((9Z,12Z)-octadeca-9,12-dien-1-yl)acetamide, reference compound]",81.9,89,> 100,
"CCCCCCCC/C=C\CCCCCCCC(=O)OCCCCCCC(CCCCCCOC(=O)CCCCCCC/C=C\CCCCCCCC)OC(=O)OCCN(CC)CCN(C)C [Example 36, 7-(((2-((2-(dimethylamino)ethyl)(ethyl)amino)ethoxy)carbonyl)oxy)tridecane-1,13-diyldioleate]",,,,11
"CCCCCC(CCCCC)C(=O)OCCCCCCC(CCCCCCOC(=O)C(CCCCC)CCCCC)OC(=O)OCCN(CC)CCN(CC)CC [Example 60, 7-(((2-((2-(Diethylamino)ethyl)(ethyl)amino)ethoxy)carbonyl)oxy)tridecane-1,13-diylbis(2-pentylheptanoate)]",,,1,
"CCCCCCCCC(CCCCCC)COC(=O)CCCC(CCCCCC)OC(=O)OCCN(CC)CCN(CC)CC (stereo not drawn) [Example 82, 2-Hexyldecyl 3,6-diethyl-12-hexyl-10-oxo-9,11-dioxa-3,6-diazahexadecan-16-oate]",77,78,,
"CCCCCCC(CCCC)COC(=O)CCCCCCCCC(CCCCCC)OC(=O)OCCN(CCO)CCN(CC)CC (stereo not drawn) [Example 85, 2-Butyloctyl 3-ethyl-12-hexyl-6-(2-hydroxyethyl)-10-oxo-9,11-dioxa-3,6-diazahenicosan-21-oate]",246.6,86,,
"CCCCCCC(CCCC)COC(=O)CCCCCCCCC(CCCCCC)OC(=O)OCCN(CCO)CCCN(CC)CC (stereo not drawn) [Example 90, 2-Butyloctyl 3-ethyl-13-hexyl-7-(2-hydroxyethyl)-11-oxo-10,12-dioxa-3,7-diazadocosan-22-oate]",169.3,60,,
"CCCCCCC(CCCC)COC(=O)CCCCCCC(CCCCCC)OC(=O)OCCN(CCN(CC)CC)C(C)C (stereo not drawn) [Example 92, 2-Butyloctyl 3-ethyl-12-hexyl-6-isopropyl-10-oxo-9,11-dioxa-3,6-diazanonadecan-19-oate]",90.5,73,,
"CCCCCCC(CCCC)COC(=O)CCCCC(CCCCCC)OC(=O)OCCN(CCN(CC)CC)C(C)C (stereo not drawn) [Example 95, 2-Butyloctyl 3-ethyl-12-hexyl-6-isopropyl-10-oxo-9,11-dioxa-3,6-diazaheptadecan-17-oate]",95.5,83,,
"CCCCCCCCC(CCCCCC)COC(=O)CCCCC(CCCCCC)OC(=O)OCCN(CCN(CC)CC)C(C)C (stereo not drawn) [Example 96, 2-Hexyldecyl 3-ethyl-12-hexyl-6-isopropyl-10-oxo-9,11-dioxa-3,6-diazaheptadecan-17-oate]",72.9,88,,
